According to paper PMC3951423, “Structural Bases of Norovirus RNA Dependent RNA Polymerase Inhibition by Novel Suramin-Related Compounds” (PLoS ONE, 2014):
≈ marks a conversion by molar mass, not a printed value. Where “and” joins values, the source holds several entries; their conditions need not be identical. Equal entries are not always repeated. Structures can show the parent of a compound that is named as a salt.

Legend:
NV-RdRp = test system: NV-RdRp; design: method as in earlier work; conditions: ref 34 (Tarantino et al., in press); cited from earlier work
[1] = Solubility in organic solvents (observation during synthesis); assay type: physicochemical; conditions: most organic solvents, including THF and DMSO
hNV-RdRp [2] = target: T1, hNV-RdRp (Norovirus GII (human norovirus; Norwalk-like virus), UniProt A0ZNP5); assay: In-vitro RdRp inhibition assay (PicoGreen fluorescence, poly(C)/oligoG12); assay type: biochemical; conditions: poly(C) template, G12 primer, GTP 100 μM; read-out: IC50 hNVRdRp
Procedure: (§1) hNV and mNV-RdRp inhibition assays were performed monitoring the impairment of RNA synthesis as a function of inhibitor concentration, as previously described. Briefly, RdRp activity was assessed in vitro (measuring PicoGreen fluorescence) following the synthesis of double-stranded RNA from a single-stranded RNA poly(C) template annealed with a G12 primer. The assay can easily be adapted for any viral RNA polymerase.
(§2) RdRp assays were performed as previously described. In brief poly(C) (MP Biomedicals) was used as template annealed with oligoG12 as primer (62.5 nM final concentration) and GTP (100 μM final concentration) as substrate, in a 200 μl reaction mixture containing 20 mM Tris/HCl pH 7.5, 25 mM NaCl, 5 mM MgCl2, 0.3 mM MnCl2, 1 mM DTT, PicoGreen Quantitation Reagent (Molecular Probes) diluted 1/200 20 U ml−1 RiboLock Ribonuclease Inhibitor (Fermentas). Reactions were started by the addition of GTP following the fluorescence of samples in a fluorescence reader (Varian, Cary Eclipse Fluorescence Spectrophotometer).

mNV-RdRp [3] = target: T2, mNV-RdRp (Norovirus, UniProt Q80J95); assay: as above; assay type: biochemical; conditions: poly(C) template, G12 primer, GTP 100 μM; read-out: IC50 mNVRdRp
T2 construct: Solutions of 4 μl of the NV-RdRp domain (final hNV-RdRp concentration 7 μM, final mNV-RdRp concentration 1.6 μM); made in house
Procedure: as §1, §2

[4] = Water solubility (Bookser's method); assay type: physicochemical; conditions: thermodynamic from solid, deionized water, saturated solution
Description: (§3) Bookser's method was applied to obtain the water solubility of sodium organosulphonates 3–8 and Suramin (9) by use of HPLC with a UV detector (see Table 1). Furthermore, the “shake–flask method” [28] was applied to obtain their hydrophobicity by use of n-octanol and water. The apparent partition coefficient (P) shown in Table 1 is the ratio of the concentration in n-octanol to the total concentration (i.e., ionized plus non-ionized) of the species in the aqueous phase, [29].
A stock solution was prepared by dissolving a precisely weighed amount of Suramin derivatives in deionized water (1.0 ml). The UV absorption maximum of each compound was measured by dilution of the solution with deionized water as necessary. A saturated solution of each compound was then prepared by use of deionized water (1.0 ml) in the presence of an excess of Suramin derivatives for 1.0 hour. The obtained saturated solution was filtered to remove solid compound through a Millipore filter (0.45 μm) and was scanned by UV spectroscopy at the wavelength of the absorption maximum previously determined.

[5] = n-Octanol/water partition coefficient (shake-flask method); assay type: physicochemical; conditions: n-octanol / pH 7.4 phosphate buffer, 25 °C, average of three experiments, read-out: hydrophobicity log P
Description: as §3
The n-octanol/water partition coefficient of Suramin derivatives was determined by the shake-flask method. n-Octanol and pH 7.4 phosphate buffer were mutually saturated for 4.0 hours, and the phases were separated. A stock solution of each Suramin derivative was prepared using pH 7.4 phosphate buffer solution. Suramin derivatives were partitioned between n-octanol and pH 7.4 phosphate buffer. Then the phase mixtures were shaken for 1 hour at constant 25 °C. After separation, the absorbance of the phosphate buffer solutions (pH 7.4) was measured by UV spectrophotometry. Three replicates were performed for each compound. The P value corresponded to the quotient between n-octanol and buffer concentrations of the drug. The log P values were an average of three independent experiments.

hNV-RdRp [6] = target: T1, hNV-RdRp; assay: Thermofluorimetric (thermal shift) assay; assay type: binding; conditions: inhibitor 4 μM, hNV-RdRp 7 μM, Sypro Orange; free enzyme Tm 41.5
Procedure: (§4) In order to exclude that 8 and 6 inhibition might be linked to some form of RdRp destabilization/aggregation/denaturation, a process generally reflected by a variation of the protein melting temperature (Tm), we performed thermofluorimetric assays on free and inhibited NV-RdRps.
(§5) Thermofluorimetric (Thermal shift) assays for the evaluation of the hNV-RdRp melting temperature (Tm) in the absence/presence of the inhibitors, were conducted in a MiniOpticon Real Time PCR Detection System (Bio-Rad), using the fluorescent dye Sypro Orange. Solutions of 4 μl of the NV-RdRp domain (final hNV-RdRp concentration 7 μM, final mNV-RdRp concentration 1.6 μM) were diluted in 9.5 μl of its buffer, and mixed with 3.5 μl of Sypro orange (Sigma) diluted 60×, and 1 μl of 6 or 8 (4 μM final concentration). In control samples the inhibitors were replaced by water. The sample plates were heated from 20 to 90°C with a heating rate of 0.2 °C/min. Fluorescence intensities were measured within excitation/emission ranges of 470–505 nm and 540–700 nm, respectively.

mNV-RdRp [7] = target: T2, mNV-RdRp; assay: Thermofluorimetric (thermal shift) assay; assay type: binding; conditions: inhibitor 4 μM, mNV-RdRp 1.6 μM, Sypro Orange; free enzyme Tm 39.6 ±0.2
Procedure: as §4, §5

[8] = statement in the Introduction, no reference given; cited from earlier work

Cc1nc(N=Nc2cc(S(=O)(=O)O)c3cc([N+](=O)[O-])cc(S(=O)(=O)O)c3c2)c(COP(=O)(O)O)c(C=O)c1O [PPNDS]
inhibitory potency against NV-RdRp (NV-RdRp): low nM

Cc1ccc(C(=O)Nc2ccc(S(=O)(=O)O)c3cccc(S(=O)(=O)O)c23)cc1NC(=O)c1cccc(N)c1 [Compound 7, 4-[3-(3-Aminobenzamido)-4-methylbenzamido]naphthalene-1,5-disulphonate Acid Disodium Salt]
Solubility in organic solvents [1]: very poor
IC50 (hNV-RdRp [2]): 1100 ± 50 nM
IC50 (mNV-RdRp [3]): 160 ± 6 nM
solubility at 1 h [4]: 249 mg/mL
logP at 1 h [5]: -2.11

Cc1ccc(C(=O)Nc2ccc(S(=O)(=O)O)c3cccc(S(=O)(=O)O)c23)cc1NC(=O)c1cccc([N+](=O)[O-])c1 [Compound 6, 4-[4-Methyl-3-(3-nitrobenzamido)benzamido]naphthalene-1,5-disulsulphonate Acid Disodium Salt]
IC50 (hNV-RdRp [2]): 1000 ± 90 nM
IC50 (mNV-RdRp [3]): 115 ± 15 nM
solubility at 1 h [4]: 179 mg/mL
hNV-RdRp Tm in the presence of inhibitor (hNV-RdRp [6]): 41.2±0.2 °C
mNV-RdRp Tm in the presence of inhibitor (mNV-RdRp [7]): 39.4±0.3 °C
logP at 1 h [5]: -1.64

Cc1ccc(C(=O)Nc2ccc(S(=O)(=O)O)c3cccc(S(=O)(=O)O)c23)cc1N [Compound 4, 4-(3-Amino-4-methylbenzamido)naphthalene-1,5-disulphonate Acid Disodium Salt]
IC50 (hNV-RdRp [2]): 1100 ± 200 nM
IC50 (mNV-RdRp [3]): 160 ± 7 nM
solubility at 1 h [4]: 339 mg/mL
logP at 1 h [5]: -2.33

Cc1ccc(C(=O)Nc2ccc(S(=O)(=O)O)c3cc(S(=O)(=O)O)cc(S(=O)(=O)O)c23)cc1NC(=O)c1cccc(NC(=O)Nc2cccc(C(=O)Nc3cc(C(=O)Nc4ccc(S(=O)(=O)O)c5cc(S(=O)(=O)O)cc(S(=O)(=O)O)c45)ccc3C)c2)c1 [Suramin (9), Suramin]
log P [8]: lower than 0
IC50 (hNV-RdRp [2]): 27 ± 3 nM
IC50 (mNV-RdRp [3]): 70 ± 3 nM
solubility at 1 h [4]: 138 mg/mL (≈ 106 mM)
logP at 1 h [5]: -3.42

Cc1ccc(C(=O)Nc2ccc(S(=O)(=O)O)c3cccc(S(=O)(=O)O)c23)cc1NC(=O)c1cccc(NC(=O)Nc2cccc(C(=O)Nc3cc(C(=O)Nc4ccc(S(=O)(=O)O)c5cccc(S(=O)(=O)O)c45)ccc3C)c2)c1 [Compound 8, 4-4′-(Carbonylbis[imino-3,1-phenylenecarbonylimino(4-methyl-3,1-phenylene)carbonylimino])bis-1,5-naphthalenedisulphonate Acid Tetrasodium Salt]
IC50 (hNV-RdRp [2]): 28 ± 4 nM
IC50 (mNV-RdRp [3]): ~60 nM and 60 nM
solubility at 1 h [4]: 114 mg/mL
hNV-RdRp Tm in the presence of inhibitor (hNV-RdRp [6]): 41.4 °C
mNV-RdRp Tm in the presence of inhibitor (mNV-RdRp [7]): 39.8 ±0.2 °C
logP at 1 h [5]: -1.61

Cc1ccc(C(=O)Nc2ccc(S(=O)(=O)O)c3cccc(S(=O)(=O)O)c23)cc1[N+](=O)[O-] [Compound 3, 4-(4-Methyl-3-nitrobenzamido)naphthalene-1,5-disulphonate Acid Disodium Salt]
IC50 (hNV-RdRp [2]): 1280 ± 70 nM
IC50 (mNV-RdRp [3]): 200 ± 10 nM
solubility at 1 h [4]: 260 mg/mL
logP at 1 h [5]: -2.19
